This note sets out measurements from ChEMBL document CHEMBL1143857, “(Phenylpiperazinyl)cyclohexylureas: discovery of alpha1a/1d-selective adrenergic receptor antagonists for the treatment of benign prostatic hyperplasia/lower urinary tract symptoms (BPH/LUTS)” (Bioorg Med Chem Lett, 2008).

For test [1], the target named is T1, Alpha-1A adrenergic receptor (Homo sapiens, UniProt P35348).
T1 sequence (P35348 whole entry): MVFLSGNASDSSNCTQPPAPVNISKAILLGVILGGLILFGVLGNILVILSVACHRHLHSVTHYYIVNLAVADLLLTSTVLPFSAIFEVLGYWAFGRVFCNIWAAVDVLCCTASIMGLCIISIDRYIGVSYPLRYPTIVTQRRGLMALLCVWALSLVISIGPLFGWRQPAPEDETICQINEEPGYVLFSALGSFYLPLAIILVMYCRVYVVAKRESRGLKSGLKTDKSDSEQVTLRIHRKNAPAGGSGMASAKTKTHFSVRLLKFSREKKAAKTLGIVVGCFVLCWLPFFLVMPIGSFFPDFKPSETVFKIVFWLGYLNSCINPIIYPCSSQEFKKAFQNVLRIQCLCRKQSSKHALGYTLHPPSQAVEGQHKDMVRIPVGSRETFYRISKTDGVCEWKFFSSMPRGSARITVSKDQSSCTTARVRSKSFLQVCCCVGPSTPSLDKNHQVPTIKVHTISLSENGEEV
Put plainly: Displacement of [125I]HEAT from human recombinant adrenergic alpha1A receptor. In general terms: Loss of bound radioactivity is the signal in a displacement assay; it reports binding, not function.

For test [2], the target named is T2, Alpha-1B adrenergic receptor (Homo sapiens, UniProt P35368).
T2 sequence (P35368 whole entry): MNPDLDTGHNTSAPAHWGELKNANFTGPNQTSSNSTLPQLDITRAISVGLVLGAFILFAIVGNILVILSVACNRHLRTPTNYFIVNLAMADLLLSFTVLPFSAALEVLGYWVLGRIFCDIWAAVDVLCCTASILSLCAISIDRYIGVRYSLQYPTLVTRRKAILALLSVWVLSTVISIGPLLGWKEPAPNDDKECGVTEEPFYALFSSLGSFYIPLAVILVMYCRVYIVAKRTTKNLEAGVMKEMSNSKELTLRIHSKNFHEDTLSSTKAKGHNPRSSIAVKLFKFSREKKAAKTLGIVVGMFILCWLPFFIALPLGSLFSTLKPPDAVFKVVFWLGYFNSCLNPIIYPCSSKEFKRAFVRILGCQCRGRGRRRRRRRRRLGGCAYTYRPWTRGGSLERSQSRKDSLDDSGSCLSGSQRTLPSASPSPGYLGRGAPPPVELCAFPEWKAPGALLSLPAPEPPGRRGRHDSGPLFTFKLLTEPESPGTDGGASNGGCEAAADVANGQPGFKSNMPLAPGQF
Put plainly: Displacement of [125I]HEAT from human recombinant adrenergic Alpha-1B receptor.

Another test has as its target D(2) dopamine receptor (Homo sapiens, UniProt P14416). Put plainly: Displacement of [125I]spiperone from human recombinant dopamine D2 receptor.
A further test is filed under the species Homo sapiens. Description: Selectivity for human alpha1A receptor over human Alpha-1D receptor.

Sequence of D(2) dopamine receptor (P14416 whole entry): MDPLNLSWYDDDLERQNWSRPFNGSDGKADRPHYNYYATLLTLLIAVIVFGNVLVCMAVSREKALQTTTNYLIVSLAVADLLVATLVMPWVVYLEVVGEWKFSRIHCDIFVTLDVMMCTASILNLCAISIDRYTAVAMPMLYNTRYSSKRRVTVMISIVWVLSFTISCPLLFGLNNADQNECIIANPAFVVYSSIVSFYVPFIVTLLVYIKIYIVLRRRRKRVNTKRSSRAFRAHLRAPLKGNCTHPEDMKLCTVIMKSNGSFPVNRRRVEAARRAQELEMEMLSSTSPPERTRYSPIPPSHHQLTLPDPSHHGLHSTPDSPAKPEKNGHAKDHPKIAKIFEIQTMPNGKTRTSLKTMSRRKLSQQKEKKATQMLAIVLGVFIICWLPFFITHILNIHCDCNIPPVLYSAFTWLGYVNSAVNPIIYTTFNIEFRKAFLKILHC

In the case of `CC(C)Oc1ccccc1N1CCN(C2CCC(NC(=O)Nc3ccc(F)c(F)c3)CC2)CC1` (cis isomer), the Ki (usually the equilibrium dissociation constant of an inhibitor or competing ligand from its target) in test [1] was 51 nM; in test [2], 963 nM; at D(2) dopamine receptor, 127 nM.
The corresponding values for `CC(C)Oc1ccccc1N1CCN(C2CCC(NC(=O)Nc3cc(F)ccc3F)CC2)CC1` (cis isomer) are 26 nM, 259 nM and 199 nM.
The corresponding values for `CC(C)Oc1ccccc1N1CCN(C2CCC(NC(=O)Nc3ccccc3Cl)CC2)CC1` (cis isomer) are 48 nM, 373 nM and 878 nM.
On to `COc1ccc(Cl)cc1NC(=O)NC1CCC(N2CCN(c3ccccc3OC(C)C)CC2)CC1` (cis isomer), for which the Ki worked out at 101 nM in test [1] and 99 nM at D(2) dopamine receptor.
Turning to `CC(C)Oc1ccccc1N1CCN(C2CCC(NC(=O)Nc3ccc(F)cc3F)CC2)CC1` (cis isomer), the values for the Ki (in test [1]; in test [2]; on D(2) dopamine receptor) were 14 nM, 475 nM and 35.5 nM, respectively.
`CC(C)Oc1ccccc1N1CCN(C2CCC(NC(=O)Nc3c(Cl)cc(Cl)cc3Cl)CC2)CC1` (stereo in doubt): the Ki in test [1] was found to be 51 nM; in test [2], 483 nM; at D(2) dopamine receptor, 103 nM.
The corresponding values for `CC(C)Oc1ccccc1N1CCN(C2CCC(NC(=O)Nc3ccc(F)c(F)c3)CC2)CC1` (stereo in doubt) are 3.6 nM, 60 nM and 54 nM.
The corresponding values for `CC(C)Oc1ccccc1N1CCN(C2CCC(NC(=O)Nc3cc(F)ccc3F)CC2)CC1` (stereo in doubt) [listing 1 of 2 here] are 1.7 nM, 36.4 nM and 0.46 nM.
For `CC(C)Oc1ccccc1N1CCN(C2CCC(NC(=O)Nc3ccccc3Cl)CC2)CC1` (stereo in doubt) [listing 1 of 2 here] the same measures were 11 nM, 39 nM and 33 nM.
`CC(C)Oc1ccccc1N1CCN(C2CCC(NC(=O)Nc3cc(F)ccc3F)CC2)CC1` (stereo in doubt) [listing 2 of 2 here]: the Ratio Ki in the test filed under Homo sapiens is 4.
Same read-out and setting: the figure for `CC(C)Oc1ccccc1N1CCN(C2CCC(NC(=O)Nc3ccccc3Cl)CC2)CC1` (stereo in doubt) [listing 2 of 2 here] is 4.
In the case of `CC(C)Oc1ccccc1N1CCN(C2CCC(NC(=O)NCc3cccc(F)c3)CC2)CC1` (stereo in doubt; cis), the Ki in test [1] is 82 nM; in test [2] it was 706 nM; at D(2) dopamine receptor it was 183 nM.
On to `CC(C)Oc1ccccc1N1CCN(C2CCC(NC(=O)Nc3c(Cl)cccc3Cl)CC2)CC1` (stereo in doubt; cis), for which the values for the Ki (in test [1]; on D(2) dopamine receptor) were 33 nM and 55 nM, respectively.
For `COc1ccc(NC(=O)NC2CCC(N3CCN(c4ccccc4OC(C)C)CC3)CC2)c(OC)c1` (stereo in doubt; cis) the same measures were 110 nM and 288 nM.
For `CC(C)Oc1ccccc1N1CCN(C2CCC(NC(=O)Nc3cccc(Cl)c3)CC2)CC1` (stereo in doubt; cis) the same measures were 22 nM and 108 nM.
Turning to `CC(C)Oc1ccccc1N1CCN(C2CCC(NC(=O)Nc3c(F)cccc3F)CC2)CC1` (stereo in doubt; cis), the Ki in test [1] is 52 nM; in test [2], 299 nM; on D(2) dopamine receptor it was 22 nM.
The corresponding values for `COc1ccccc1NC(=O)NC1CCC(N2CCN(c3ccccc3OC(C)C)CC2)CC1` (stereo in doubt; cis) are 155 nM, 223 nM and 390 nM.
The corresponding values for `CC(C)Oc1ccccc1N1CCN(C2CCC(NC(=O)NCc3cccc(F)c3)CC2)CC1` (stereo in doubt; trans) [listing 1 of 2 here] are 11 nM, 69 nM and 120 nM.
For the compound `CC(C)Oc1ccccc1N1CCN(C2CCC(NC(=O)Nc3c(Cl)cccc3Cl)CC2)CC1` (stereo in doubt; trans), the values for the Ki (in test [1]; at D(2) dopamine receptor) were 6.2 nM and 4.7 nM, respectively.
As for `COc1ccc(NC(=O)NC2CCC(N3CCN(c4ccccc4OC(C)C)CC3)CC2)c(OC)c1` (stereo in doubt; trans), the Ki was determined as 74 nM in test [1] and 892 nM on D(2) dopamine receptor.
Consider `CC(C)Oc1ccccc1N1CCN(C2CCC(NC(=O)Nc3cccc(Cl)c3)CC2)CC1` (stereo in doubt; trans), for which the Ki was 5.1 nM in test [1] and 84 nM on D(2) dopamine receptor.
Take `CC(C)Oc1ccccc1N1CCN(C2CCC(NC(=O)Nc3c(F)cccc3F)CC2)CC1` (stereo in doubt; trans): the figures for the Ki (in test [1]; in test [2]; at D(2) dopamine receptor) were 5.3 nM, 36 nM and 2.4 nM, respectively.
The corresponding values for `COc1ccccc1NC(=O)NC1CCC(N2CCN(c3ccccc3OC(C)C)CC2)CC1` (stereo in doubt; trans) are 38 nM, 107 nM and 921 nM.
As for `CC(C)Oc1ccccc1N1CCN(C2CCC(NC(=O)NCc3cccc(F)c3)CC2)CC1` (stereo in doubt; trans) [listing 2 of 2 here], the Ratio Ki in the test listed under Homo sapiens came out at 4.
As to `CC(C)Oc1ccccc1N1CCN(C2CCC(NC(=O)Nc3c(Cl)cc(Cl)cc3Cl)CC2)CC1` (trans isomer) [listing 1 of 2 here], the Ki amounted to 6.5 nM in test [1], 112 nM in test [2] and 6.5 nM at D(2) dopamine receptor.
As for `COc1ccc(Cl)cc1NC(=O)NC1CCC(N2CCN(c3ccccc3OC(C)C)CC2)CC1` (trans isomer), the Ki in test [1] worked out at 34 nM; on D(2) dopamine receptor it was 1.2 nM.
For the compound `CC(C)Oc1ccccc1N1CCN(C2CCC(NC(=O)Nc3ccc(F)cc3F)CC2)CC1` (trans isomer), the values for the Ki (in test [1]; in test [2]; at D(2) dopamine receptor) were 3.1 nM, 76 nM and 0.69 nM, respectively.
Turning to `CC(C)Oc1ccccc1N1CCN(C2CCC(NC(=O)Nc3c(Cl)cc(Cl)cc3Cl)CC2)CC1` (trans isomer) [listing 2 of 2 here], the Ratio Ki in the test filed under Homo sapiens came to 4.
